Biological target: T1, human bradykinin B1 receptor (Homo sapiens, UniProt P46663)
T1 construct: expressed in transfected cells; membranes
T1 sequence (P46663 1-353): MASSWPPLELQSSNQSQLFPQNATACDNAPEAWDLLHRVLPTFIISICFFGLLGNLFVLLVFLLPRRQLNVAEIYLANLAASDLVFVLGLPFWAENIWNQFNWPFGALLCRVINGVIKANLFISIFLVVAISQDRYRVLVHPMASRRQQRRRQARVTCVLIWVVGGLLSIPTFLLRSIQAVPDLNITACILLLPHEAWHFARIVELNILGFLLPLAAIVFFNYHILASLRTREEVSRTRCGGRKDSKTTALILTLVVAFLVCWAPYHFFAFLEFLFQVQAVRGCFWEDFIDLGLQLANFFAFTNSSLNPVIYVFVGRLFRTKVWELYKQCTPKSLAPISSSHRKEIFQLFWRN
Experiment: Test I: Bradykinin Receptor Binding Assay ([3H]desArg10-kallidin displacement, HEK 293 membranes)
Settings: statement in words
Procedure: This cDNA is sequenced and subcloned into pcDNA3 (Clontech) and used to generate a cell-line which expresses the human bradykinin B1 receptor.
Cells are grown in Mininum Essential Medium with Eade's Salts (GIBCO) supplemented with 2 mM L-glutamine, 100 units/ml penicillin, 100 μg/ml streptomycin, 1% nonessential amino acids and 10% myodone foetal calf serum (GIBCO) in a humidified atmosphere with 5% CO2 at 37° C.
One 175 cm^2 flask with approximately 50% confluent cells is transfected with approximately 30 μg/ml HB1-pcDNA3 DNA using the calcium phosphate precipitate method of transfection. The flask of transfected cells is split 1:3 on day 2 post transfecdon to prevent overgrowth. The following day the cells are split 1:5 and selection in 700 μg/ml G418 begins. The selective medium is changed every 3-4 days. When distinct G418 resistant colonies of transfected cells are seen, approximately 4 weeks after transfection, the cells are cloned by limiting dilution and assayed for binding of [^3H]desArg^10-kallidin. […]
Specific binding to the bradykinin B1 receptor is defined as the difference between that found in total bound tubes and that found in non-specific binding tubes. […] Mimoscintillant-40 Liquid scintillant is added to the filters and radioactivity bound is determined in a Canberra Packard Topcount scintillation counter. […]

CC(C)N1CCN(C(=O)C2CCN(S(=O)(=O)c3ccc(NCC(c4ccccc4)c4ccccc4)c(C(=O)N4CCOCC4)c3)CC2)CC1 [Example 1, {2-(2,2-diphenyl-ethylamino)-5-[4-(4-Isopropyl-piperazine-1-carbonyl)-piperidine-1-sulfonyl]-pheny}-morpholin-4-yl-methanone]
active at the human B1 bradykinin receptor: active
